This passage reports IC50 and inhibition results from ChEMBL document CHEMBL4387706, “Discovery of Novel Spiroindoline Derivatives as Selective Tankyrase Inhibitors” (J Med Chem, 2019).

In test [1] the target is T1, Poly [ADP-ribose] polymerase tankyrase-1 (Homo sapiens, UniProt O95271).
T1 sequence (O95271 whole entry): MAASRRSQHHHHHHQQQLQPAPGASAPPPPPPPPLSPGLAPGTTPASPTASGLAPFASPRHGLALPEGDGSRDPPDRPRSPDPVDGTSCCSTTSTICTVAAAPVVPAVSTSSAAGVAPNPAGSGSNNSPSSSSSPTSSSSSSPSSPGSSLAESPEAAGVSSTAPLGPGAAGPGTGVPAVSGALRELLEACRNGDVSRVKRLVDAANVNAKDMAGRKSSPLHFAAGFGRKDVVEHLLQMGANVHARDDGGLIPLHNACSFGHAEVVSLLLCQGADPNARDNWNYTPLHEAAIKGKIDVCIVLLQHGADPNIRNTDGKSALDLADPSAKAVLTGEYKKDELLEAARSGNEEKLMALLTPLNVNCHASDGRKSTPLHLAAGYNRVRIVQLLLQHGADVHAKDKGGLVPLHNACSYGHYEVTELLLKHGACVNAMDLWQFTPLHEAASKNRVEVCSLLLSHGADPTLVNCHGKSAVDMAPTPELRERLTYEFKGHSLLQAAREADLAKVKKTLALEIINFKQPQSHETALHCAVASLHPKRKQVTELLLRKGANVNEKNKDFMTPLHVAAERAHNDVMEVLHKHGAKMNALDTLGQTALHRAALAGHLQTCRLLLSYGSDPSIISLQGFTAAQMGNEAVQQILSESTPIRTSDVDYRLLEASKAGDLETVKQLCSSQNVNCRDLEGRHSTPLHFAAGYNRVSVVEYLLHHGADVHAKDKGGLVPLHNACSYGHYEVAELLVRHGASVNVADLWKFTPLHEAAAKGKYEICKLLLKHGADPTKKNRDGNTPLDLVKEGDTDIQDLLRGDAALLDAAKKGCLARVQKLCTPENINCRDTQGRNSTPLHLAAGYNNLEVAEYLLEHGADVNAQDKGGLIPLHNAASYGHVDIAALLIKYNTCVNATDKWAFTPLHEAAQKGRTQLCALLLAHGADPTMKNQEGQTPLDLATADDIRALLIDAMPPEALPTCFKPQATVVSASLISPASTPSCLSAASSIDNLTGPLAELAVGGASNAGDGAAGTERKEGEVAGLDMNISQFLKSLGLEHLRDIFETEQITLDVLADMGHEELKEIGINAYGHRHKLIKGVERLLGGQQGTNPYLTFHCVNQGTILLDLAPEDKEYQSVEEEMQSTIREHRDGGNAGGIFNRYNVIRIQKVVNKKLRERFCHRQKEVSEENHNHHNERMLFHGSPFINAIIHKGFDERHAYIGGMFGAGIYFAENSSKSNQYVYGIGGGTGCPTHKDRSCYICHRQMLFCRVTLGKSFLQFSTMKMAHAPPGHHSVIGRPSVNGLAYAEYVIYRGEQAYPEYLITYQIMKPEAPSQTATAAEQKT
Description: Inhibition of recombinant human N-terminal TEV cleavage site-fused/FLAG-poly his-tagged TNKS SAM-PARP domain (1024 to 1327 residues) expressed in Escherichia coli assessed as reduction in auto-PARylation preincubated for 10 mins followed by biotinylated-NAD+ addition and measured after 45 mins by ELISA

Test [2] concerns the target T2, Tankyrase 1/2 (Homo sapiens, UniProt Q9H2K2+O95271).
T2 sequence (Q9H2K2 whole entry): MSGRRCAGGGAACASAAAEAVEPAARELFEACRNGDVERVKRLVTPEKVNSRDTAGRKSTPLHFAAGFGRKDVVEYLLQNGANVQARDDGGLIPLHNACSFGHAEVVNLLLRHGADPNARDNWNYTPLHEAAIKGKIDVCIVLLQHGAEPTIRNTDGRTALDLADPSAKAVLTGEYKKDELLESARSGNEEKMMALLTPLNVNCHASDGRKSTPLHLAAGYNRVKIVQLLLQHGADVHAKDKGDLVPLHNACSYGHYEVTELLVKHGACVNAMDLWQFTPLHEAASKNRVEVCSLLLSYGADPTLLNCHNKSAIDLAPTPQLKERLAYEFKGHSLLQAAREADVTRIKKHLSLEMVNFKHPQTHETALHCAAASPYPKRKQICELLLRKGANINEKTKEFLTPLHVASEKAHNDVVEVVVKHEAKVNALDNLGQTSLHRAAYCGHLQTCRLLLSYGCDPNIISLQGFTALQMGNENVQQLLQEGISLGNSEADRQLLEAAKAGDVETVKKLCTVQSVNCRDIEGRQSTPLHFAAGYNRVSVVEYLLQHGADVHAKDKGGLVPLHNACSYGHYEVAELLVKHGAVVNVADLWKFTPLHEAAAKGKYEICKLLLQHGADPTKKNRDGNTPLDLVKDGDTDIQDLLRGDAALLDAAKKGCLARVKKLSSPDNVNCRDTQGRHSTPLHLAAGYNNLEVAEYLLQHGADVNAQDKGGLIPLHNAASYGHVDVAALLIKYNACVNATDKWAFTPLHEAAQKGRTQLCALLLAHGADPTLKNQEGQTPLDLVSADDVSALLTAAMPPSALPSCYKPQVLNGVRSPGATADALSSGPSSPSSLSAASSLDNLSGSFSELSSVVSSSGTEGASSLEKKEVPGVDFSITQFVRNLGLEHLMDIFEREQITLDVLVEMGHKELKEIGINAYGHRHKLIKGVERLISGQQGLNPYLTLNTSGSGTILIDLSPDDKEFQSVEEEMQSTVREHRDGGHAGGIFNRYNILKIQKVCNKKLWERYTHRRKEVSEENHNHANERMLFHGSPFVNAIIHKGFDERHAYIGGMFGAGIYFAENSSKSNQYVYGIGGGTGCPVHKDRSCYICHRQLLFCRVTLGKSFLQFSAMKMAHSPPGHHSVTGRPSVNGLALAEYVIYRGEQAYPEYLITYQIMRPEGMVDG
T2 sequence (O95271 whole entry): T1 sequence (O95271 whole entry)
The following applies: hek293.
Description: Inhibition of TNKS/TNKS2 (unknown origin) expressed in HEK293 cells assessed as reduction in Wnt-signaling measured after 24 hrs by TCF-luciferase reporter gene assay

In test [3] the target is 5-hydroxytryptamine receptor 2B (Homo sapiens) (UniProt P41595). The test can be described thus: Displacement of [3H]LSD from full-length recombinant human 5HT2B receptor expressed in CHOK1 cells at 10 uM measured after 60 mins by scintillation counting method relative to control. The test is classed as cell-based.
5-hydroxytryptamine receptor 2B (Homo sapiens), sequence (P41595 whole entry): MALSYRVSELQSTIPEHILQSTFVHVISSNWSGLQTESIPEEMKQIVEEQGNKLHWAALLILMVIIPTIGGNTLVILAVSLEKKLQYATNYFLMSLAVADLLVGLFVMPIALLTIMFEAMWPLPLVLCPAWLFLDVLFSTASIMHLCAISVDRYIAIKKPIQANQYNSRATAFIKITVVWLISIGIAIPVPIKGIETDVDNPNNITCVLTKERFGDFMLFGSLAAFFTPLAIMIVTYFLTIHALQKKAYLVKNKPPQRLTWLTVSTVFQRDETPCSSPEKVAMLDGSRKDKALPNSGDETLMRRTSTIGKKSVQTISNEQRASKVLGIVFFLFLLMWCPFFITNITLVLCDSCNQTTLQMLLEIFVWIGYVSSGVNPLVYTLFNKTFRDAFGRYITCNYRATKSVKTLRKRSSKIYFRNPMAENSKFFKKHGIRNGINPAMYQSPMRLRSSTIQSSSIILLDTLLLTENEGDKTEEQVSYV
The target in test [4] is Histamine H2 receptor (Homo sapiens) (UniProt P25021). The test is described as follows: Displacement of [125I]aminopotentidine from full-length recombinant human H2 receptor expressed in CHOK1 cells at 10 uM measured after 120 mins by scintillation counting method relative to control. The test is classed as cell-based.
Histamine H2 receptor (Homo sapiens), sequence (P25021 whole entry): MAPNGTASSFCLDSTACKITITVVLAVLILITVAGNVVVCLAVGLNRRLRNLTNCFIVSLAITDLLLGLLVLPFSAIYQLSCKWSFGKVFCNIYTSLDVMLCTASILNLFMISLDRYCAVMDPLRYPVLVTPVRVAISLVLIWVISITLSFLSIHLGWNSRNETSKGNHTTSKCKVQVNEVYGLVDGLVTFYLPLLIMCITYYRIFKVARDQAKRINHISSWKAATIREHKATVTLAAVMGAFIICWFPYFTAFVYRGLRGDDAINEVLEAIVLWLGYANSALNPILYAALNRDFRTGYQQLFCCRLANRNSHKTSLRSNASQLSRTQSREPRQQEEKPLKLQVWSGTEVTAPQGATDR
Test [5] deals with Tyrosine-protein kinase Lck (Homo sapiens) (UniProt P06239). The test is described as follows: Inhibition of full-length recombinant human LCK expressed in insect cells at 10 uM using poly(Glu:Tyr) as substrate preincubated for 15 mins followed by substrate addition and measured after 30 mins in presence of [gamma32P]ATP by scintillation counting method relative to control.
Tyrosine-protein kinase Lck (Homo sapiens), sequence (P06239 2-509 limits assumed): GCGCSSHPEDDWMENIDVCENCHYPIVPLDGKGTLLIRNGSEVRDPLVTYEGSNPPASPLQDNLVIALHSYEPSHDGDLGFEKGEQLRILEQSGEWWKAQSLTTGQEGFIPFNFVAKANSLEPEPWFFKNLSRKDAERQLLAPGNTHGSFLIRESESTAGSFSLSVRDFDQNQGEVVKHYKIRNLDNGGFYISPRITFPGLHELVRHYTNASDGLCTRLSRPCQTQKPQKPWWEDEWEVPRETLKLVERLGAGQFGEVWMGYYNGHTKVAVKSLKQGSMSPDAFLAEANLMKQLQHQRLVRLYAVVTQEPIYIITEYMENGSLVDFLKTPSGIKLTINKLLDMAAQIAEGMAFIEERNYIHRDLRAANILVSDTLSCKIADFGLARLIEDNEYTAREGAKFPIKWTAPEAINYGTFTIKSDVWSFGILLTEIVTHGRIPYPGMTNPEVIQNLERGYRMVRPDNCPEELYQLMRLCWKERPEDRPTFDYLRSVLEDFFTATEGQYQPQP
Test [6] deals with Muscarinic acetylcholine receptor M1 (Homo sapiens) (UniProt P11229). The test can be described thus: Displacement of [3H]N-Methylscopolamine from full-length recombinant human M1 receptor expressed in CHOK1 cells at 10 uM measured after 120 mins by scintillation counting method relative to control. The test is classed as cell-based.
Muscarinic acetylcholine receptor M1 (Homo sapiens), sequence (P11229 whole entry): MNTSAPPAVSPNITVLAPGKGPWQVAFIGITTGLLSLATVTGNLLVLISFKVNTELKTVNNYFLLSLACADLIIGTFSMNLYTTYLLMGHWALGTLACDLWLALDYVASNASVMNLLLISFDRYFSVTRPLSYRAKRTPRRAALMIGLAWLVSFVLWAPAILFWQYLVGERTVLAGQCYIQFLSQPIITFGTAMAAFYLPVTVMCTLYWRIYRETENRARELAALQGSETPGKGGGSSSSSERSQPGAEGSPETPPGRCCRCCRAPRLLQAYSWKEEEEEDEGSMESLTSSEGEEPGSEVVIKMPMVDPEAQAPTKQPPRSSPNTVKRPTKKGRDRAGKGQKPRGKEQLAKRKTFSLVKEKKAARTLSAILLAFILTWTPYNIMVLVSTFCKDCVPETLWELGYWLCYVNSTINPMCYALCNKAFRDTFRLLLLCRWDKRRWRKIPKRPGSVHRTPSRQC
The species entered for test [7] is Rattus norvegicus. The test can be described thus: Displacement of [125I]a-dendrotoxin from voltage-gated potassium channel in Wistar rat cerebral cortex at 10 uM measured after 60 mins by scintillation counting method relative to control.

Some results are limits rather than exact numbers.

For `COc1ccccc1N1CCN(c2nc3c(c(=O)[nH]2)CCCC3)CC1`, the IC50 worked out at 20.5 nM in test [1] and 42.9 nM in test [2].

With `O=c1[nH]c(N2CCC3(CC2)CN(CCO)c2cc(F)cc(F)c23)nc2c1CCCC2`, the inhibition in test [3], in test [4], in test [5], in test [6] and in test [7] was over 20% in each case.
